The results in this text go back to patent publication US4041111A, “Phosphonate monoesters and method of preparation” (Purdue Research Foundation, priority 1975, dated 1977).

Data set [1] deals with T1, purified bovine intestinal phosphodiesterase (Bos taurus, UniProt P15396).
T1 sequence (P15396 1-874): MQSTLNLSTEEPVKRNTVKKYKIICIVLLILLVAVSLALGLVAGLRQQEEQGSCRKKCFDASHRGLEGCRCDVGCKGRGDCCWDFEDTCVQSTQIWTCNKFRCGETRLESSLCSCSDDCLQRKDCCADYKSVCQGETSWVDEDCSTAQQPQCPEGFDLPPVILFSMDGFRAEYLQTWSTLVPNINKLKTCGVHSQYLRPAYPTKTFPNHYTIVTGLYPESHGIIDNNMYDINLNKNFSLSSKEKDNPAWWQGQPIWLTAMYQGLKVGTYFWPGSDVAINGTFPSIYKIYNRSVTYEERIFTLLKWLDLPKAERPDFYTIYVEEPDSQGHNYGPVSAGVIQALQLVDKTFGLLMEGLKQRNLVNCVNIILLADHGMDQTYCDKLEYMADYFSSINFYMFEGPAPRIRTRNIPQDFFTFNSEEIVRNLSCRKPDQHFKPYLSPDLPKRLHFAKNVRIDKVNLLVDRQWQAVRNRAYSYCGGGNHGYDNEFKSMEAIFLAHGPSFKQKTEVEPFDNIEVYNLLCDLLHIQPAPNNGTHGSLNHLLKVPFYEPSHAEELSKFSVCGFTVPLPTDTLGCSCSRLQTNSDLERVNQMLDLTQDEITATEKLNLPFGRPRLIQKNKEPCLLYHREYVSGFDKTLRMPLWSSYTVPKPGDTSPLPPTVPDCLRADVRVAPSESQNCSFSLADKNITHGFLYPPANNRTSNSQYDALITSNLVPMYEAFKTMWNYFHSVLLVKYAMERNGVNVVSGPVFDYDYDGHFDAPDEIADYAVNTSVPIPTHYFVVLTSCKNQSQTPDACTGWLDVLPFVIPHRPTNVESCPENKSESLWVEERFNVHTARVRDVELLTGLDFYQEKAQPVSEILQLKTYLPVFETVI
Kind of data set: Kinetic parameters of hydrolysis by purified phosphonate monoesterase/phosphodiesterase of calf intestinal mucosa (Table VI). The format is biochemical, bovine (calf). The settings on record: 0.1 M Tris pH 8.0, 30° C., 4-nitrophenol measured continuously at 400 nm. On the procedure:
(§1) Enzymic hydrolysis of 4-nitrophenyl esters is quantitated spectrophotometrically by the appearance of the 4-nitrophenolate ion at 400 nm (ε=18,320 M^-^1 cm^-1, pK 7.15) (see Kezdy, F. J. and Bender, M. L., 1962, Biochemistry, Volume 1, page 1097), either continuously above pH 7.0 or discontinuously by raising the assay mixture to pH 9 and inactivating the enzyme by the addition of two volumes of 1 M NaHCO3, 10 mM Na3 PO4, 10 mM Na2 EDTA. Standard assay conditions are 1 mM 4-nitrophenyl phenylphosphonate, 0.1 M Tris, pH 8.0, 30° C.
^a Production of 4-nitrophenol was measured continuously at 400 nm in […]

In data set [2] the test system is Type II phosphodiesterase, Bovine spleen. Kind of data set: Activity of Type II phosphodiesterase, bovine spleen (Table VII). The format is biochemical. The settings on record: 1 mM 4-nitrophenyl ester of the named compound. Here is the method:
as §1
(§2) Table VII is a comparison of Type I and Type II Phosphodiesterase as follows:
(§3) Substrates were 1 mM solutions of the 4-nitrophenyl esters of the above

Data set [3] deals with T2, Type I phosphodiesterase, Bovine Intestine (Bos taurus, UniProt P15396).
T2 construct: from tissue; host or cells: bovine intestine
T2 sequence (P15396 1-874): T1 sequence (P15396 1-874)
Kind of data set: Activity of Type I phosphodiesterase, bovine intestine (Table VII). Format: biochemical. The note with it: 1 mM 4-nitrophenyl ester of the named compound. On the procedure: as §1, §2, §3

The subject of data set [4] is Type I phosphodiesterase, Snake Venon. Kind of data set: Activity of Type I phosphodiesterase, snake venom (Table VII). The format is biochemical. The settings on record: 1 mM 4-nitrophenyl ester of the named compound. On the procedure: as §1, §2, §3
Data set [5] in a line: Stability and water solubility of phosphonate monoesters.

Molecules are shown by their SMILES.

With `Cc1cn([C@H]2C[C@H](OP(=O)(O)Oc3ccc([N+](=O)[O-])cc3)[C@@H](CO)O2)c(=O)[nH]c1=O` [4-nitrophenyl 3'-TMP], the Vmax in data set [1] was 1 μmoles min^-^1 mg^-^1. The Activity in data set [2] came out at 168 nmoles min^-^1 mg^-^1; in data set [3] it was 569 nmoles min^-^1 mg^-^1; in data set [4] it was 1.9 nmoles min^-^1 mg^-^1.
On to `Cc1cn([C@H]2C[C@H](O)[C@@H](COP(=O)(O)Oc3ccc([N+](=O)[O-])cc3)O2)c(=O)[nH]c1=O` [4-nitrophenyl 5'-TMP], for which the Activity in data set [2] is listed as 6.9 nmoles min^-^1 mg^-^1; in data set [3] it was 65,700 nmoles min^-^1 mg^-^1; in data set [4] it was 4570 nmoles min^-^1 mg^-^1.
`O=[N+]([O-])c1ccc(OP(=O)(O)c2ccccc2)cc1` [4-nitrophenyl phenylphosphonate]: in data set [5] (concentrations to 0.1 M, 0°-4° C.), the “stability of solutions of the ammonium salt” value is “stable in concentrations to 0.1 M for several weeks at 0°-4 °C”. Also, the “stability as the dry ammonium salt” value in data set [5] (dry ammonium salt) is “stable indefinitely as the dry ammonium salt”. For the same compound, the “stability in solution compared with 4-nitrophenyl phosphate” value in data set [5] (in solution) is “much more stable in solution than is 4-nitrophenyl phosphate”.
